Results published in PMC11990670, “Exploring the Volatility, Phase Transitions, and Solubility Properties of Five Halogenated Benzaldehydes” (Molecules, 2025).
Marks after values point to notes of the source that are not given here. One block for each molecule: values may come before it.

What was measured:
[1] = Vapor pressures of crystalline and liquid phases, static method with capacitance diaphragm gauge; type: physicochemical
Description: A previously described and tested static apparatus was used to measure the vapor pressures of the condensed phases (both crystalline and liquid) of the five compounds studied. This installation employs MKS capacitance diaphragm absolute gauges, operating at self-regulated constant temperatures. Our lab is equipped with three pressure gauges. Gauge I, a Baratron 631A01TBEH (MKS instruments, Andover, MA, USA) (Tgauge = 423 K), measures pressures in the range of 0.5 to 1.3 × 10^2 Pa and operates within a temperature range of 253 to 413 K. Gauge II, the instrument used in this study, is a Baratron 631A11TBFP (MKS instruments, Andover, MA, USA) (Tgauge = 473 K), capable of measuring pressures from 0.5 to 1.3 × 10^3 Pa within a temperature range of 253 to 433 K and gauge III, a Baratron 631D02T8FP (MKS instruments, Andover, MA, USA) (Tgauge = 473 K), designed to measure pressures between 0.5 Pa and 2.6 × 10^2 Pa, also within a temperature range of 253 to 433 K. The temperatures of the samples were measured using a Pt100 platinum resistance thermometer, calibrated by comparison with a standard platinum resistance thermometer (SPRT: Tinsley Precision Instruments Ltd, London, England). To prevent vapor condensation, the tubing connecting the cell containing the condensed sample to the pressure gauge is maintained at a temperature higher than that of the sample but lower than that of the gauge. The uncertainty in temperature measurements is estimated to be u(T/K) = ±0.01, and the expanded uncertainties (0.95 confidence level, k = 2) in pressure measurements are given by the expression U(p/Pa) = 0.1 + 0.0050 (p/Pa) for the gauge used. Samples were thoroughly degassed before starting the vapor pressure measurements, ensuring consistent readings at specific temperatures and eliminating any residual volatile substances, including water.

[2] = pH of the saturated aqueous solutions; type: physicochemical; conditions: saturated aqueous solution of the solubility experiment
Experimental: The concentration was measured by absorbances at 260 nm for 4-chlorobenzaldehyde, 263 nm for 4-bromobenzaldehyde and 2,4-dichlorobenzaldehyde, 297 nm for 2,6-dichlorobenzaldehyde, and 306 nm for 2,3-dichlorobenzaldehyde, using a Cary-60 UV–vis (Agilent) spectrophotometer. X-ray diffraction (XRD) and differential scanning calorimetry of residual solids were used to identify the eventual phase transformations. The purified samples of each compound studied were used for all experimental determinations, including the solubility measurements. After reaching the equilibrium, the residual solid was dried and analyzed using both DSC and XRD. The melting properties obtained from DSC were compared with those of the original purified sample, following the same procedure for the XRD analysis. […] As an example, the supporting information includes two thermograms and two XRD patterns for 2,4-dichlorobenzaldehyde (Figures S1 and S2). […] Equation (4) was derived from Equation (5), which is widely applicable to the solubility of solids.(4) ΔhydrGm°/kJ·mol^−1=9.17−5.71·log10(Scr/mol·m^−3)−ΔcrgGm°/kJ·mol^−1 (5) S=p^°/RTexpΔcrgGm°+ΔhydrGm°/−RT
An excess amount of each compound was added to a known volume of water in triplicate. […] After stirring, the solid phase was allowed to settle for 2 h. The pH of the saturated solutions was measured using a Mettler Toledo (Greifensee, Switzerland) FiveEasy F20 pH Meter calibrated with standard aqueous solutions (pH 7.00 and 4.01 or 10.1). Those solutions were then filtered through a 0.22 μm syringe hydrophilic filter (13 mm, PTFE, Labfil, Zhejiang, China) and diluted to the required concentration. The concentration of the compounds, expressed in molarity, was measured by absorbances using a Cary-60 UV–vis spectrophotometer (Agilent Technologies, Santa Clara, CA, USA) at 298.15 K (single cell Peltier accessory, ±0.15 K). The results reported in Table 6 are averaged from at least three replicates. Calibration was performed using solutions of known concentrations of each substance in water. These solutions were prepared by adding a precise mass of the substance and a specific volume of the solvent to a flask, then mixing until the substance was fully dissolved. The absorbance of these solutions was measured, and calibration curves were created.

- vapor pressure p ([1]; crystalline phase, T = 284.21 K): 0.49 Pa
- vapor pressure p ([1]; crystalline phase, T = 286.16 K): 0.63 Pa
- vapor pressure p ([1]; crystalline phase, T = 288.13 K): 0.78 Pa
- vapor pressure p ([1]; crystalline phase, T = 290.09 K): 0.99 Pa
- vapor pressure p ([1]; crystalline phase, T = 292.06 K): 1.26 Pa
- vapor pressure p ([1]; crystalline phase, T = 294.04 K): 1.58 Pa
- vapor pressure p ([1]; crystalline phase, T = 296.22 K): 2.00 Pa
- vapor pressure p ([1]; crystalline phase, T = 298.17 K): 2.47 Pa
- vapor pressure p ([1]; crystalline phase, T = 299.97 K): 3.02 Pa
- vapor pressure p ([1]; crystalline phase, T = 302.18 K): 3.78 Pa
- vapor pressure p ([1]; crystalline phase, T = 303.89 K): 4.58 Pa
- vapor pressure p ([1]; crystalline phase, T = 305.78 K): 5.63 Pa
- vapor pressure p ([1]; crystalline phase, T = 308.08 K): 7.12 Pa
- vapor pressure p ([1]; crystalline phase, T = 309.86 K): 8.45 Pa
- vapor pressure p ([1]; crystalline phase, T = 312.03 K): 10.58 Pa
- vapor pressure p ([1]; crystalline phase, T = 313.92 K): 12.78 Pa
- vapor pressure p ([1]; crystalline phase, T = 315.60 K): 15.22 Pa
- vapor pressure p ([1]; crystalline phase, T = 317.96 K): 18.67 Pa
- vapor pressure p ([1]; crystalline phase, T = 319.59 K): 21.97 Pa
- vapor pressure p ([1]; crystalline phase, T = 321.86 K): 27.35 Pa
- vapor pressure p ([1]; crystalline phase, T = 323.56 K): 31.92 Pa
- vapor pressure p ([1]; crystalline phase, T = 325.70 K): 39.35 Pa
- vapor pressure p ([1]; crystalline phase, T = 327.48 K): 45.52 Pa
- vapor pressure p ([1]; crystalline phase, T = 329.63 K): 56.32 Pa
- vapor pressure p ([1]; crystalline phase, T = 331.62 K): 65.87 Pa
- vapor pressure p ([1]; liquid phase, T = 335.54 K): 91.33 Pa
- vapor pressure p ([1]; liquid phase, T = 337.55 K): 103.4 Pa
- vapor pressure p ([1]; liquid phase, T = 339.54 K): 117.4 Pa
- vapor pressure p ([1]; liquid phase, T = 341.49 K): 133.6 Pa
- vapor pressure p ([1]; liquid phase, T = 343.48 K): 150.6 Pa
- vapor pressure p ([1]; liquid phase, T = 345.45 K): 169.9 Pa
- vapor pressure p ([1]; liquid phase, T = 347.44 K): 189.1 Pa
- vapor pressure p ([1]; liquid phase, T = 349.41 K): 214.0 Pa
- vapor pressure p ([1]; liquid phase, T = 351.50 K): 240.6 Pa
- vapor pressure p ([1]; liquid phase, T = 353.48 K): 267.2 Pa
- vapor pressure p ([1]; liquid phase, T = 355.36 K): 297.6 Pa
- vapor pressure p ([1]; liquid phase, T = 357.43 K): 335.9 Pa
- vapor pressure p ([1]; liquid phase, T = 359.33 K): 371.6 Pa
- vapor pressure p ([1]; liquid phase, T = 361.39 K): 419.6 Pa
- vapor pressure p ([1]; liquid phase, T = 363.27 K): 461.9 Pa
- vapor pressure p ([1]; liquid phase, T = 365.34 K): 516.4 Pa
- vapor pressure p ([1]; liquid phase, T = 367.35 K): 569.4 Pa
- vapor pressure p ([1]; liquid phase, T = 369.27 K): 630.4 Pa
- vapor pressure p ([1]; liquid phase, T = 371.17 K): 695.2 Pa
- vapor pressure p ([1]; liquid phase, T = 373.23 K): 767.3 Pa
- vapor pressure p ([1]; liquid phase, T = 375.13 K): 843.4 Pa
- vapor pressure p ([1]; liquid phase, T = 377.17 K): 930.5 Pa
- vapor pressure p ([1]; liquid phase, T = 379.07 K): 1011 Pa
- vapor pressure p ([1]; liquid phase, T = 381.03 K): 1104 Pa
- vapor pressure p ([1]; supercooled liquid, T = 327.59 K): 54.84 ^d Pa
- vapor pressure p ([1]; supercooled liquid, T = 329.66 K): 62.05 ^d Pa
- vapor pressure p ([1]; supercooled liquid, T = 331.60 K): 71.02 ^d Pa
- vapor pressure p ([1]; supercooled liquid, T = 333.65 K): 80.84 ^d Pa
- pH of the saturated solution [2]: 6.43
Compound: O=Cc1cccc(Cl)c1Cl [2,3-Dichlorobenzaldehyde]

Compound: O=Cc1ccc(Cl)cc1Cl [2,4-Dichlorobenzaldehyde]
- vapor pressure p ([1]; crystalline phase, T = 285.78 K): 0.64 Pa
- vapor pressure p ([1]; crystalline phase, T = 287.68 K): 0.80 Pa
- vapor pressure p ([1]; crystalline phase, T = 289.73 K): 1.02 Pa
- vapor pressure p ([1]; crystalline phase, T = 291.36 K): 1.23 Pa
- vapor pressure p ([1]; crystalline phase, T = 293.15 K): 1.50 Pa
- vapor pressure p ([1]; crystalline phase, T = 294.83 K): 1.81 Pa
- vapor pressure p ([1]; crystalline phase, T = 296.85 K): 2.29 Pa
- vapor pressure p ([1]; crystalline phase, T = 298.81 K): 2.85 Pa
- vapor pressure p ([1]; crystalline phase, T = 301.19 K): 3.67 Pa
- vapor pressure p ([1]; crystalline phase, T = 303.16 K): 4.55 Pa
- vapor pressure p ([1]; crystalline phase, T = 305.23 K): 5.65 Pa
- vapor pressure p ([1]; crystalline phase, T = 307.12 K): 6.86 Pa
- vapor pressure p ([1]; crystalline phase, T = 308.88 K): 8.29 Pa
- vapor pressure p ([1]; crystalline phase, T = 310.95 K): 10.12 Pa
- vapor pressure p ([1]; crystalline phase, T = 313.23 K): 12.78 Pa
- vapor pressure p ([1]; crystalline phase, T = 315.25 K): 15.58 Pa
- vapor pressure p ([1]; crystalline phase, T = 317.80 K): 20.05 Pa
- vapor pressure p ([1]; crystalline phase, T = 320.56 K): 26.18 Pa
- vapor pressure p ([1]; crystalline phase, T = 322.93 K): 32.84 Pa
- vapor pressure p ([1]; crystalline phase, T = 325.24 K): 40.77 Pa
- vapor pressure p ([1]; crystalline phase, T = 327.66 K): 50.25 Pa
- vapor pressure p ([1]; crystalline phase, T = 329.75 K): 60.90 Pa
- vapor pressure p ([1]; crystalline phase, T = 331.73 K): 72.78 Pa
- vapor pressure p ([1]; crystalline phase, T = 333.66 K): 85.89 Pa
- vapor pressure p ([1]; crystalline phase, T = 335.72 K): 102.0 Pa
- vapor pressure p ([1]; crystalline phase, T = 337.64 K): 119.1 Pa
- vapor pressure p ([1]; crystalline phase, T = 339.73 K): 141.9 Pa
- vapor pressure p ([1]; crystalline phase, T = 341.66 K): 166.2 Pa
- vapor pressure p ([1]; liquid phase, T = 344.36 K): 207.6 Pa
- vapor pressure p ([1]; liquid phase, T = 346.33 K): 233.6 Pa
- vapor pressure p ([1]; liquid phase, T = 348.33 K): 261.6 Pa
- vapor pressure p ([1]; liquid phase, T = 349.66 K): 282.0 Pa
- vapor pressure p ([1]; liquid phase, T = 351.41 K): 310.8 Pa
- vapor pressure p ([1]; liquid phase, T = 353.17 K): 342.8 Pa
- vapor pressure p ([1]; liquid phase, T = 355.39 K): 390.3 Pa
- vapor pressure p ([1]; liquid phase, T = 357.59 K): 437.4 Pa
- vapor pressure p ([1]; liquid phase, T = 359.46 K): 479.4 Pa
- vapor pressure p ([1]; liquid phase, T = 361.34 K): 533.0 Pa
- vapor pressure p ([1]; liquid phase, T = 363.54 K): 603.2 Pa
- vapor pressure p ([1]; liquid phase, T = 365.63 K): 668.2 Pa
- vapor pressure p ([1]; liquid phase, T = 367.44 K): 733.6 Pa
- vapor pressure p ([1]; liquid phase, T = 369.34 K): 810.6 Pa
- vapor pressure p ([1]; liquid phase, T = 371.29 K): 885.4 Pa
- vapor pressure p ([1]; liquid phase, T = 373.62 K): 998.4 Pa
- vapor pressure p ([1]; liquid phase, T = 375.74 K): 1100 Pa
- vapor pressure p ([1]; supercooled liquid, T = 324.34 K): 57.72 ^d Pa
- vapor pressure p ([1]; supercooled liquid, T = 326.40 K): 66.54 ^d Pa
- vapor pressure p ([1]; supercooled liquid, T = 328.22 K): 75.25 ^d Pa
- vapor pressure p ([1]; supercooled liquid, T = 330.22 K): 85.67 ^d Pa
- vapor pressure p ([1]; supercooled liquid, T = 332.21 K): 97.72 ^d Pa
- vapor pressure p ([1]; supercooled liquid, T = 334.17 K): 110.6 ^d Pa
- vapor pressure p ([1]; supercooled liquid, T = 336.16 K): 125.6 ^d Pa
- vapor pressure p ([1]; supercooled liquid, T = 338.15 K): 141.4 ^d Pa
- vapor pressure p ([1]; supercooled liquid, T = 340.44 K): 163.3 ^d Pa
- vapor pressure p ([1]; supercooled liquid, T = 342.29 K): 184.1 Pa
- pH of the saturated solution [2]: 6.57
